According to patent US20200054651A1, “COMPOSITIONS AND METHODS FOR MODULATING PPP2R1A” (The Regents of the University of California, priority 2017, published 2020):

What was measured:
[1] = test system: 231MFP breast cancer cells; test: 231MFP cell proliferation (Hoechst staining); type: cell-based; conditions: 100 μM, 48 h, 231MFP
[2] = target: T1, pure human PPP2R1A protein (Homo sapiens, UniProt P30153); test: Gel-based ABPP, competition against IAyne labeling; type: binding; conditions: 30 min at 37° C. pre-treatment, IAyne labeling
T1 construct: purchased Origene
Description: Gel-based ABPP methods were performed using the methods described in “Chem Biol 22(10), 1394-1405 (2015)” by Medina-Cleghorn D., et al. Recombinant pure human proteins were purchased from Origene. Pure proteins were pre-treated with DMSO, Withaferin A, or acrylamide or chloroacetamide compounds (e.g., DKM 2-90 or JNS 1-40) for 30 minutes at 37° C. in an incubation volume of PBS (50 μL), and were subsequently treated with IAyne (10 μM final concentration) for 30 minutes at room temperature. CuAAC was performed to append rhodamine-azide onto IAyne probe-labeled proteins. The samples were separated by SDS/PAGE and scanned using a ChemiDoc MP. Inhibition of target labeling was assessed by densitometry using ImageStudio Light software.

T1 sequence (P30153 whole entry): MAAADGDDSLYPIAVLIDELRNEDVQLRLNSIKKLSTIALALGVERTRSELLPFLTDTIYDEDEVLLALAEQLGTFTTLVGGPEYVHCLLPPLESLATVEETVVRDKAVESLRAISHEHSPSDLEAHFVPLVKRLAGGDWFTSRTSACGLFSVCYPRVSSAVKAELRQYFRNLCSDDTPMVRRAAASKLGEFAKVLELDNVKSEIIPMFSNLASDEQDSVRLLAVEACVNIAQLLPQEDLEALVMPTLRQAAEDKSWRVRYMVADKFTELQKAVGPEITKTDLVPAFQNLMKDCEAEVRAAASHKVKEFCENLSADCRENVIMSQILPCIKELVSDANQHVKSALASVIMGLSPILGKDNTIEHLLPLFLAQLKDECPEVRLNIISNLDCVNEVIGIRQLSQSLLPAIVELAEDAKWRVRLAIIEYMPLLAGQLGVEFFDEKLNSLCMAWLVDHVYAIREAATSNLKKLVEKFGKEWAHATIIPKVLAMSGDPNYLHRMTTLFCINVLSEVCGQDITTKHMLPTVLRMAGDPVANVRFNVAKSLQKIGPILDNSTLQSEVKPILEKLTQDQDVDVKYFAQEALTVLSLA

Row | IC50 [2] [µM] | SMILES | cell proliferation [1]
1 | – | O=C(CCl)Nc1cccc2c1CCC2 [DKM 2-91] | lead compounds
2 | 300 | O=C(CCl)Nc1ccc2c(c1)CCCC2 [JNS 1-37, 2-Chloro-N-(5,6,7,8-tetrahydronaphthalen-2-yl)acetamide] | –
